Active and inactive are the calls of the source.
What was measured:
Melanocortin receptor 4 = Melanocortin receptor 4 (Homo sapiens, UniProt P32245); assay: inhibitors of MC4R cAMP signaling – cell-based, TR-FRET, biased antagonists, dose response (AID 602298); assay type: functional;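 note: antagonist potency against agonist-stimulated cAMP production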
[1] = cAMP pathway inhibition in counterscreen cell line – TR-FRET cAMP detection, counter-screen for MC4R biased antagonist project, dose response (AID 602305); assay type: functional, cell-based;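 note: U2OS cells stimulated with forskolin near its EC80 as the cAMP inducer; potency is for inhibition of forskolin-stimulated cAMP signaling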
[2] = biological target: BDNF/NT-3 growth factors receptor (Homo sapiens, UniProt Q16620); assay type: functional;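 note: NTRK2 measured as one member of a broad kinome-wide kinase profiling panel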
[3] = biological target: Platelet-derived growth factor receptor beta (Homo sapiens, UniProt P09619); assay type: functional;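 note: value comes from a kinome panel, with PDGFRB tested as one panel member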
[4] = biological target: Cyclin-dependent kinase 9 (Homo sapiens, UniProt P50750); assay type: functional;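 note: value from the CDK9 entry of a kinome-spanning kinase panel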
[5] = biological target: Macrophage colony-stimulating factor 1 receptor (Homo sapiens, UniProt P07333); assay type: functional;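 note: value comes from the Navigating the Kinome screening panel, CSF1R member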
[6] = biological target: cAMP-dependent protein kinase catalytic subunit alpha (Homo sapiens, UniProt P17612); assay type: functional
[7] = biological target: Dual specificity tyrosine-phosphorylation-regulated kinase 1B (Homo sapiens, UniProt Q9Y463); assay: Navigating the Kinome. Panel member name: DYRK1B; assay type: functional
[8] = biological target: Dual specificity protein kinase CLK4 (Homo sapiens, UniProt Q9HAZ1); assay type: functional
[9] = biological target: Vascular endothelial growth factor receptor 2 (Homo sapiens, UniProt P35968); assay type: functional
Aurora kinase A = biological target: T1, Aurora kinase A (Homo sapiens, UniProt O14965); assay type: functional;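 note: value from the Navigating the Kinome kinase panel profiling, panel entry STK6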
T1 sequence (O14965 whole entry): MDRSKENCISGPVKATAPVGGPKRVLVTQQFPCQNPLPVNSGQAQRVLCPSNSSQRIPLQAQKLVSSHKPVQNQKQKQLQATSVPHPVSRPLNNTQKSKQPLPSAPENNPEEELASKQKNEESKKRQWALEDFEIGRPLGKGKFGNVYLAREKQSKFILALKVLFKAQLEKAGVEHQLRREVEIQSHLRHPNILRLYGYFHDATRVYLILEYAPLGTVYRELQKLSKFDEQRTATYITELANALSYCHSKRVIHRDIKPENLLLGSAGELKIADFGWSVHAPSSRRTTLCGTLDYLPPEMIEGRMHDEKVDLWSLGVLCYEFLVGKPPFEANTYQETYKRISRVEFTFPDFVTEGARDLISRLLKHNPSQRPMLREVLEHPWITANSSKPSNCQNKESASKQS

[10] = biological target: Cyclin-dependent kinase 19 (Homo sapiens, UniProt Q9BWU1); assay: Navigating the Kinome. Panel member name: CDC2L6; assay type: functional
[11] = biological target: Protein kinase C theta type (Homo sapiens, UniProt Q04759); assay: Navigating the Kinome. Panel member name: PRKCQ; assay type: functional
[12] = biological target: T2, Tyrosine-protein kinase receptor TYRO3 (Homo sapiens, UniProt Q06418); assay type: functional;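 note: TYRO3 value obtained as one member of a kinome-wide profiling panel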
T2 sequence (Q06418 whole entry): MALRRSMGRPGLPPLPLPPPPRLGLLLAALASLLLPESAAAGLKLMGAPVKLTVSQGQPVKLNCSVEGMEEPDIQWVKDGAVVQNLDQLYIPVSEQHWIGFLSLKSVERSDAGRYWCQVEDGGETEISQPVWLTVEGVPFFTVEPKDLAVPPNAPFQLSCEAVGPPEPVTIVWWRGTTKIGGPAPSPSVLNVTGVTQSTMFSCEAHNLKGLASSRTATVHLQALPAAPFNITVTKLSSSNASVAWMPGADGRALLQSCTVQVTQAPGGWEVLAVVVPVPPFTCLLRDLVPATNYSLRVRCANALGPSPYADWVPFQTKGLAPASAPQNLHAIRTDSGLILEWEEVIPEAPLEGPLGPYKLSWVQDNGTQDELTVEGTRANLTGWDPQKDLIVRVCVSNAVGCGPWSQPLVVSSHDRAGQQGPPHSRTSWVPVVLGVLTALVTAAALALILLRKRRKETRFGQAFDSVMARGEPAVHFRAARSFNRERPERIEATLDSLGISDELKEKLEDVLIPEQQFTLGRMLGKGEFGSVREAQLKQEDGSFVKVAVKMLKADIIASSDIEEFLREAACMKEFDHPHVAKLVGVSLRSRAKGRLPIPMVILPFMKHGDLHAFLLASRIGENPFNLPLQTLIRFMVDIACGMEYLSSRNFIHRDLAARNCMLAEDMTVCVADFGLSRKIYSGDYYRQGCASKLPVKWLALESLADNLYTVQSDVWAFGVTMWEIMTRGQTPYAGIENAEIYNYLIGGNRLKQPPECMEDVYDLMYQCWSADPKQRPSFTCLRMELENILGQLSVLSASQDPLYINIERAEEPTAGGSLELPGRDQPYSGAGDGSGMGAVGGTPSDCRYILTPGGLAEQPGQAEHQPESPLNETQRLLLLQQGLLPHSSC

[13] = biological target: Dual specificity tyrosine-phosphorylation-regulated kinase 1A (Homo sapiens, UniProt Q13627); assay type: functional;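 note: measured against DYRK1A as one member of a broad kinome profiling panel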
[14] = biological target: T3, cAMP-dependent protein kinase catalytic subunit PRKX (Homo sapiens, UniProt P51817); assay type: functional
T3 sequence (P51817 whole entry): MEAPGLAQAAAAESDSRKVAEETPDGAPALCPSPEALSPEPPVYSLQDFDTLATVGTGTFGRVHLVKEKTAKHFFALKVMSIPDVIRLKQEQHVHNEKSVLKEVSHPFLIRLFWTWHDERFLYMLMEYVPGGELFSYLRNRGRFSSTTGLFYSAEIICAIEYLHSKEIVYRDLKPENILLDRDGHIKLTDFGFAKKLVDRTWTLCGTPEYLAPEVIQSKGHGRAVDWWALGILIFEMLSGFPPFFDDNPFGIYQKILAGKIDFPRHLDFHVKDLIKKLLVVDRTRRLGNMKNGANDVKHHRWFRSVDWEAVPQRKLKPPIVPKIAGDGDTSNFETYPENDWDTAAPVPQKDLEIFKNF

[15] = biological target: Macrophage-stimulating protein receptor (Homo sapiens, UniProt Q04912); assay: Navigating the Kinome. Panel member name: MST1R; assay type: functional
Focal adhesion kinase 1 = Focal adhesion kinase 1 (Homo sapiens, UniProt Q05397); assay type: functional;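 note: measured as one member of a kinome panel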
Activated CDC42 kinase 1 = Activated CDC42 kinase 1 (Homo sapiens, UniProt Q07912); assay: Navigating the Kinome. Panel member name: ACK1; assay type: functional
[16] = biological target: 5'-AMP-activated protein kinase catalytic subunit alpha-1 (Homo sapiens, UniProt Q13131); assay type: functional
[17] = biological target: Dual specificity mitogen-activated protein kinase kinase 2 (Homo sapiens, UniProt P36507); assay: Navigating the Kinome. Panel member name: MAP2K2; assay type: functional
[18] = biological target: Leukocyte tyrosine kinase receptor (Homo sapiens, UniProt P29376); assay: Navigating the Kinome. Panel member name: LTK; assay type: functional
[19] = biological target: Platelet-derived growth factor receptor alpha (Homo sapiens, UniProt P16234); assay: Navigating the Kinome. Panel member name: PDGFRA; assay type: functional
[20] = biological target: Dual specificity mitogen-activated protein kinase kinase 1 (Homo sapiens, UniProt Q02750); assay: Navigating the Kinome. Panel member name: MAP2K1; assay type: functional
[21] = biological target: Casein kinase I isoform alpha (Homo sapiens, UniProt P48729); assay type: functional
[22] = biological target: Cyclin-dependent kinase 5 (Homo sapiens, UniProt Q00535); assay type: functional;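 note: CDK5 measured as one member of a kinase profiling panel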
[23] = biological target: Dual specificity protein kinase CLK2 (Homo sapiens, UniProt P49760); assay type: functional

Chain of Melanocortin receptor 4 (P32245 whole entry): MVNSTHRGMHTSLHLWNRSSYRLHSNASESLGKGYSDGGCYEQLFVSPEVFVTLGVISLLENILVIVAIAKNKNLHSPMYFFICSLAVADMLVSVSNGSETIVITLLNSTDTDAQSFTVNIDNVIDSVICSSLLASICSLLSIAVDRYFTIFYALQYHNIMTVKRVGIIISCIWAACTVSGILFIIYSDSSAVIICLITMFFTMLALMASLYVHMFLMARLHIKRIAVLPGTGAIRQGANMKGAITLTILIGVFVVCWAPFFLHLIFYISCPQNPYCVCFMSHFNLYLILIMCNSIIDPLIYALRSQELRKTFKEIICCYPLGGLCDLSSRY
Chain of BDNF/NT-3 growth factors receptor (Q16620 whole entry): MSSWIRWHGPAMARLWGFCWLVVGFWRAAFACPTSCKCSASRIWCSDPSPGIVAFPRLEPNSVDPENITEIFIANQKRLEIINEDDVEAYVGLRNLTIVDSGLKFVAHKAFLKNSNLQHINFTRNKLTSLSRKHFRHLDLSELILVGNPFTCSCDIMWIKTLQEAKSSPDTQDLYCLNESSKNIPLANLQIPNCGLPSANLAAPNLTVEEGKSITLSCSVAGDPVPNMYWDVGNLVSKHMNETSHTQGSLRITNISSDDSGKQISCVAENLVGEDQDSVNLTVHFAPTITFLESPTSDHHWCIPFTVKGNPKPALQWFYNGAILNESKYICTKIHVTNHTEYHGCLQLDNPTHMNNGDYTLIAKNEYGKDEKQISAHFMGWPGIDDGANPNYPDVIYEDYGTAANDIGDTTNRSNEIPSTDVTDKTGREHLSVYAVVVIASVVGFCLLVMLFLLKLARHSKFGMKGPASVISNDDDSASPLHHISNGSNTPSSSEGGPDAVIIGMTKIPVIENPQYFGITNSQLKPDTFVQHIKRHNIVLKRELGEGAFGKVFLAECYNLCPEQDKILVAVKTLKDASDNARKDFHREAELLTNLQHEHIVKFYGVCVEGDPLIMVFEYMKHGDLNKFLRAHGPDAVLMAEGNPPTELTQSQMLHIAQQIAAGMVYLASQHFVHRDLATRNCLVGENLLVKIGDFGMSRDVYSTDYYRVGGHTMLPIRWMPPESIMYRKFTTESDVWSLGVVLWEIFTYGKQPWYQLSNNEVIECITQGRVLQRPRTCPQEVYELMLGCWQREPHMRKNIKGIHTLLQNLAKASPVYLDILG
Chain of Vascular endothelial growth factor receptor 2 (P35968 whole entry): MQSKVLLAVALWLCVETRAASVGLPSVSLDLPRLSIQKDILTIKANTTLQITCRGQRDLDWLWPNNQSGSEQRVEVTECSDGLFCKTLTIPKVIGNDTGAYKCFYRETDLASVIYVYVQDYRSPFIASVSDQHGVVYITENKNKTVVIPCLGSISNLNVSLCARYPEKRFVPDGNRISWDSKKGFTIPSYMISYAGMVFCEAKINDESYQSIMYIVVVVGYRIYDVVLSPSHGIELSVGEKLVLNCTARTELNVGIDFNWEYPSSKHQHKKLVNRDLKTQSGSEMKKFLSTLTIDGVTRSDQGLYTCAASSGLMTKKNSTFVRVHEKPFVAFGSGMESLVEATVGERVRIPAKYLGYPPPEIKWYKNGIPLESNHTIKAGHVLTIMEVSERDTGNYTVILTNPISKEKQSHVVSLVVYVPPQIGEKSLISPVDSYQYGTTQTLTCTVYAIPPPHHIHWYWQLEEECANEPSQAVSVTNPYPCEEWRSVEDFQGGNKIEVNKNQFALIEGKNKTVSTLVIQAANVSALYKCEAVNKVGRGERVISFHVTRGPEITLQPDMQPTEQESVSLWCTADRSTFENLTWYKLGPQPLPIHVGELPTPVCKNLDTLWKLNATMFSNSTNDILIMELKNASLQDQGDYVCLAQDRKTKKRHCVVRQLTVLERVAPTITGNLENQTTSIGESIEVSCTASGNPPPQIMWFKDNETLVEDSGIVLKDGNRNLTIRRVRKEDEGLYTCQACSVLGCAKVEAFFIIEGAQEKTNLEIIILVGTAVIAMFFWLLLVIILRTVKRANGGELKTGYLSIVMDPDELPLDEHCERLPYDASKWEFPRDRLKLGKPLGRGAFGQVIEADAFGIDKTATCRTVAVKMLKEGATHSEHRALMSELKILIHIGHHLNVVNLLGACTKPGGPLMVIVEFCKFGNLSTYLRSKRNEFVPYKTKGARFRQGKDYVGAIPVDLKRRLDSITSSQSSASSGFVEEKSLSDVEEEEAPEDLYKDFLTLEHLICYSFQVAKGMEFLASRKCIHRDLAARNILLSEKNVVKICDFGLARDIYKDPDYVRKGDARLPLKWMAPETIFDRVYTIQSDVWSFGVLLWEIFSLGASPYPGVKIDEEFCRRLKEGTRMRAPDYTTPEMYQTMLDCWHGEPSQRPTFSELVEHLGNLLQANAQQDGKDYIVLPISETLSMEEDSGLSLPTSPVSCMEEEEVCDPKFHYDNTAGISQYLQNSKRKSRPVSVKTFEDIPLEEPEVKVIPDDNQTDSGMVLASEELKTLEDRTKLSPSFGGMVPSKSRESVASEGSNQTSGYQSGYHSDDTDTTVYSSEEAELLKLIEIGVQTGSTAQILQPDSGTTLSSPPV
Chain of Dual specificity mitogen-activated protein kinase kinase 2 (P36507 whole entry): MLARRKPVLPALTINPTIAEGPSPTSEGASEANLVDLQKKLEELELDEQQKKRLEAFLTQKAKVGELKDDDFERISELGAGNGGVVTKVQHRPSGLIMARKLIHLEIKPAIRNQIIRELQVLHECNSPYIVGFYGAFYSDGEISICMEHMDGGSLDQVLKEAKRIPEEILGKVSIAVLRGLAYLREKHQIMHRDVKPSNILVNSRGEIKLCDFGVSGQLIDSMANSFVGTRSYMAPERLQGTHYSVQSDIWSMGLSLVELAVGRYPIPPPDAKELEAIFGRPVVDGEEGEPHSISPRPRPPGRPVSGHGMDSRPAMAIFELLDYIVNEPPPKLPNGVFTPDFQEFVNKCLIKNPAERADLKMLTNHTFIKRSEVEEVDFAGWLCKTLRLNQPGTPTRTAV
Chain of Cyclin-dependent kinase 5 (Q00535 whole entry): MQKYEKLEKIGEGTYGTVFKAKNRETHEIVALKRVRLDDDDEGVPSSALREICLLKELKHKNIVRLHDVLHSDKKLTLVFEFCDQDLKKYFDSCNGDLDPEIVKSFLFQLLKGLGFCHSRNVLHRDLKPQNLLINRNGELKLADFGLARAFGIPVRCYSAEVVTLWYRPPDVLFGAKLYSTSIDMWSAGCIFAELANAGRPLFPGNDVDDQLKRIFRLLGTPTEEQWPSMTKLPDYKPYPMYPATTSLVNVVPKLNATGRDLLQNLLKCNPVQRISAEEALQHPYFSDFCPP
Chain of Macrophage colony-stimulating factor 1 receptor (P07333 whole entry): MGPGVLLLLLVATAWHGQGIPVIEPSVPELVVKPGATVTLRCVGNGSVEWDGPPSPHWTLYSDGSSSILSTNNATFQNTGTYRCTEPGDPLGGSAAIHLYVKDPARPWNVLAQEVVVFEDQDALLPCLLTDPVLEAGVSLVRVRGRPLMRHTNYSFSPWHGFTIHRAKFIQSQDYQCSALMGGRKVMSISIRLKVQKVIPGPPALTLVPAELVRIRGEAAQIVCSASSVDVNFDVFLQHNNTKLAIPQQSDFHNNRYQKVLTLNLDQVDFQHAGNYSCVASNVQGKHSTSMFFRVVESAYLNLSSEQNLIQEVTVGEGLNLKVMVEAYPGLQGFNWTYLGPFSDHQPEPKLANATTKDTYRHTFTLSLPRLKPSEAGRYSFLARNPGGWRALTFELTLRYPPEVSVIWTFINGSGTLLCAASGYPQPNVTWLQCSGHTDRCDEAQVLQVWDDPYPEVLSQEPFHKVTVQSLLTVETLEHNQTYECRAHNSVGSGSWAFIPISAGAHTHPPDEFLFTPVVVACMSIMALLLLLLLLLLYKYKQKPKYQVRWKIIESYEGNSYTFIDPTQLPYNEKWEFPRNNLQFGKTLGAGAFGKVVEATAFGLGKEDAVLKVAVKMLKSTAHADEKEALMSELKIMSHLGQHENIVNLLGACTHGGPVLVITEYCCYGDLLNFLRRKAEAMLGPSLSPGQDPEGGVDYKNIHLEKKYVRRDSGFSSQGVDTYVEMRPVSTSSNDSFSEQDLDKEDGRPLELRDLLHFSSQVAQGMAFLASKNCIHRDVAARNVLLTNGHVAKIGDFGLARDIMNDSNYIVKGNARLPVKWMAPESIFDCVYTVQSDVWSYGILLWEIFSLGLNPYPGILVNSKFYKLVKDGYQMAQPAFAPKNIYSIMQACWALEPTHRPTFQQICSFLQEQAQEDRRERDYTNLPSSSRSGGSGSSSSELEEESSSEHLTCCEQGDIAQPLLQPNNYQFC
Chain of Dual specificity protein kinase CLK4 (Q9HAZ1 whole entry): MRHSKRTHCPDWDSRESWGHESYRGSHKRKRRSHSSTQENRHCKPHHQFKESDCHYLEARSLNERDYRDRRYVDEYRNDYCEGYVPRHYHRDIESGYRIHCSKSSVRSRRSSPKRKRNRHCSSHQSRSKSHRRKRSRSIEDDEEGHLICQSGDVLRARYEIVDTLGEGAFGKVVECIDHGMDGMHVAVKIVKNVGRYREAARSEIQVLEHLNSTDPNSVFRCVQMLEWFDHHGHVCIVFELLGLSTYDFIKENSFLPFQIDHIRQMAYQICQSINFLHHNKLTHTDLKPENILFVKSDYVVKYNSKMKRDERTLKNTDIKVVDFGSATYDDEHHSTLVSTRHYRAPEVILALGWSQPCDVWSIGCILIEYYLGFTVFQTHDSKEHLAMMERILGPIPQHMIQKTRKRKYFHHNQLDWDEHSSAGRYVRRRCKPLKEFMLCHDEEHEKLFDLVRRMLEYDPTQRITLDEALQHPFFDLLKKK
Chain of Cyclin-dependent kinase 9 (P50750 whole entry): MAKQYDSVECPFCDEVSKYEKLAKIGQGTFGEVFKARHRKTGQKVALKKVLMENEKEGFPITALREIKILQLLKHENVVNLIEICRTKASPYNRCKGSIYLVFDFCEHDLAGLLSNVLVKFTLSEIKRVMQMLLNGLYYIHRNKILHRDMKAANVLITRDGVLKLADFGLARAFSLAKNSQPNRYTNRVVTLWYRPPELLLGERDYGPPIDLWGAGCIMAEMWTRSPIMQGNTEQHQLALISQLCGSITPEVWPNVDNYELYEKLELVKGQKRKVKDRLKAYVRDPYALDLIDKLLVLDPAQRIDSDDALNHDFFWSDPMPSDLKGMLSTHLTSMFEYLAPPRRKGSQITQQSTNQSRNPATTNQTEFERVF

Question: Which IC50 (Melanocortin receptor 4) does the source give for `COC(=O)CSc1nnc(-c2ccc(S(=O)(=O)NCc3ccccc3Cl)cc2)o1` here?
Answer: > 64.6 µM (inactive)

Question: And the IC50 [1]?
Answer: > 64.6 µM (inactive)

Question: For `O=C(Oc1cccc(C(=S)N2CCOCC2)c1)c1ccc([N+](=O)[O-])cc1[N+](=O)[O-]`, which IC50 (Melanocortin receptor 4) is on record?
Answer: > 64.6 µM (inactive)

Question: What about the IC50 [1] of the same compound?
Answer: > 64.6 µM (inactive)

Question: For `O=C1NCc2ccc(-c3ccccc3)cc21`, which Ki [2] is on record?
Answer: 25.1 µM (active)

Question: And the Ki [3]?
Answer: > 79.4 µM (inactive)

Question: What about the Ki [4] of the same compound?
Answer: > 63.1 µM (inactive)

Question: What about the Ki [5] of the same compound?
Answer: > 100 µM (inactive)

Question: What about the Ki [6] of the same compound?
Answer: > 50.1 µM (inactive)

Question: What about the Ki [7] of the same compound?
Answer: 100 µM (active)

Question: What about the Ki [8] of the same compound?
Answer: 1.58 µM (active)

Question: What about the Ki [9] of the same compound?
Answer: > 100 µM (inactive)

Question: What about the Ki (Aurora kinase A) of the same compound?
Answer: > 63.1 µM (inactive)

Question: And the Ki [10]?
Answer: > 100 µM (inactive)

Question: And the Ki [11]?
Answer: > 100 µM (inactive)

Question: And the Ki [12]?
Answer: 79.4 µM (active)

Question: And the Ki [13]?
Answer: > 79.4 µM (inactive)

Question: With `CN(C)CC1CCn2cc(c3ccccc32)C2=C(C(=O)NC2=O)c2cn(c3ccccc23)CCO1` (stereo not drawn) as the compound, how does the Ki [2] read?
Answer: > 3.98 µM (inactive)

Question: What about the Ki [14] of the same compound?
Answer: > 3.16 µM (inactive)

Question: And the Ki [15]?
Answer: 0.2 µM (active)

Question: What about the Ki [6] of the same compound?
Answer: 0.631 µM (active)

Question: What about the Ki (Focal adhesion kinase 1) of the same compound?
Answer: > 6.31 µM (inactive)

Question: And the Ki [9]?
Answer: 2 µM (active)

Question: And the Ki (Activated CDC42 kinase 1)?
Answer: > 3.98 µM (inactive)

Question: What about the Ki [16] of the same compound?
Answer: > 3.16 µM (inactive)

Question: What about the Ki [17] of the same compound?
Answer: > 3.98 µM (inactive)

Question: What about the Ki [18] of the same compound?
Answer: > 2.51 µM (inactive)

Question: And the Ki [19]?
Answer: > 2.51 µM (inactive)

Question: What about the Ki [20] of the same compound?
Answer: > 3.16 µM (inactive)

Question: And the Ki [13]?
Answer: > 2 µM (inactive)

Question: What about the Ki [21] of the same compound?
Answer: > 3.98 µM (inactive)

Question: And the Ki [22]?
Answer: > 3.16 µM (inactive)

Question: What about the Ki [23] of the same compound?
Answer: 0.158 µM (active)
